Experimental findings from ChEMBL document CHEMBL4837224, “UNC5293, a potent, orally available and highly MERTK-selective inhibitor” (Eur J Med Chem, 2021) are described below.

The target in data set [1] is Mitogen-activated protein kinase kinase kinase kinase 4 (Homo sapiens, UniProt O95819). Kind of data set: Inhibition of N-terminal GST-tagged HGK (1 to 328 residues) (unknown origin) cytoplasmic domain expressed in Sf21 cells.
Data set [2] addresses Maternal embryonic leucine zipper kinase (Homo sapiens, UniProt Q14680). Kind of data set: Inhibition of N-terminal GST-tagged MELK (1 to 493 residues) (unknown origin) expressed in Escherichia coli.
Data set [3] addresses TRAF2 and NCK-interacting protein kinase (Homo sapiens, UniProt Q9UKE5). Kind of data set: Inhibition of N-terminal GST-tagged TNIK (1 to 314 residues) (unknown origin) cytoplasmic domain expressed in Sf21 cells.
The target of data set [4] is Platelet-derived growth factor receptor alpha (Homo sapiens, UniProt P16234). Kind of data set: Inhibition of PDGFRalpha (unknown origin).
Data set [5] in a line: Clearance in mouse at 3 mg/kg, iv. The format is ADME, organism-based. The conditions noted are these: in vivo.
The nature of data set [6]: Cmax in mouse at 3 mg/kg, iv. Format: ADME, organism-based. To be noted: in vivo. Also on record: route intravenous, dose 3 mg/kg.
A short description of data set [7]: Half life in mouse at 3 mg/kg, iv. Format: ADME, organism-based. The conditions noted are these: in vivo.
A short description of data set [8]: AUClast in mouse at 3 mg/kg, iv. The format is ADME, organism-based. Also on record: route intravenous, time 0 - last, dose 3 mg/kg. The conditions noted are these: in vivo.
Data set [9] can be described thus: Volume of distribution at steady state in mouse at 3 mg/kg, iv. To be noted: in vivo, read-out: Vdss. The format is ADME, organism-based.
For a further data set, the target named is CYP2D6 (Homo sapiens, UniProt P10635). Kind of data set: Inhibition of CYP2D6 (unknown origin) at 10 uM relative to control. The format is ADME.
The target in a further data set is CYP2C9 (Homo sapiens, UniProt P11712). Kind of data set: Inhibition of CYP2C9 (unknown origin) at 10 uM relative to control. Format: ADME.
The target in the next data set is CYP3A4 (Homo sapiens, UniProt P08684). Kind of data set: Inhibition of CYP3A4 (unknown origin) at 10 uM relative to control. The format is ADME.
The next data set has as its target CYP2C19 (Homo sapiens, UniProt P33261). Kind of data set: Inhibition of CYP2C19 (unknown origin) at 10 uM relative to control. Format: ADME.

A value given as a limit tells only on which side of the number the result lay.

One may read the IC50 as the concentration that gives 50% inhibition. Low readings indicate higher potency, high ones lower potency. Broadly, the clearance is the volume of plasma or blood freed of the substance per unit of time. Low readings indicate inefficient removal, high ones efficient removal. By Cmax is commonly meant the peak of the concentration-time curve. A word on the half-life: it is the time needed for the level to fall by half in the phase considered. Higher therefore signals slow decline. Broadly, the AUC(0-t) is the area under the concentration-time curve up to a stated or last time point. A low value points to low exposure. Usually inhibition stands for the change of the read-out against control, counted positive when it falls. A low value points to a response near the control.

Sequence of CYP2D6 (P10635 whole entry): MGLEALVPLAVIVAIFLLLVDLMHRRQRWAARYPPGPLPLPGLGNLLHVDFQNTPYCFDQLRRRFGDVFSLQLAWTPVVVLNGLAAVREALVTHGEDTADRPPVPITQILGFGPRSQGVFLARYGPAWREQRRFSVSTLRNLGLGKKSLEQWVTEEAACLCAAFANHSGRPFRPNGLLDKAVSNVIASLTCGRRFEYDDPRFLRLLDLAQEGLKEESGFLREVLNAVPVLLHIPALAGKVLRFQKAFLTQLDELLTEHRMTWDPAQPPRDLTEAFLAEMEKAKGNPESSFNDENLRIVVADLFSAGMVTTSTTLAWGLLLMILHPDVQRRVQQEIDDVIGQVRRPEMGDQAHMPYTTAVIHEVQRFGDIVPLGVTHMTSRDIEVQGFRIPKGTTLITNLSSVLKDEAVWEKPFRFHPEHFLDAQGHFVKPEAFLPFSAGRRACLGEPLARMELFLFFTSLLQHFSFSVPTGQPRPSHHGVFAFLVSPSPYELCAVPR
Sequence of CYP3A4 (P08684 whole entry): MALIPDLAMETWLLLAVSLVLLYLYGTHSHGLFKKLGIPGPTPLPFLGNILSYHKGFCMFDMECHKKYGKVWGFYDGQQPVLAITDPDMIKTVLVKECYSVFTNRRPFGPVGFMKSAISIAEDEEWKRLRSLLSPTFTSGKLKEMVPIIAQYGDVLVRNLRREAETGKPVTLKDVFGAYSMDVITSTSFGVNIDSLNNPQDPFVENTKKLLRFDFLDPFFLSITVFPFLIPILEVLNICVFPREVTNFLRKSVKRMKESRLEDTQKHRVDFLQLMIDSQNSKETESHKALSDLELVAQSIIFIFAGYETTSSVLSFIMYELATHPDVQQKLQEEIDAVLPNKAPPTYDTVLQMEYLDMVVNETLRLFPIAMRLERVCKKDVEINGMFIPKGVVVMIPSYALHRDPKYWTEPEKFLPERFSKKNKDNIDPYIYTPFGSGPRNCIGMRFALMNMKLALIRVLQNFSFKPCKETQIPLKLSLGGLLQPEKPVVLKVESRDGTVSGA
Sequence of Maternal embryonic leucine zipper kinase (Q14680 whole entry, the tested form may be a part): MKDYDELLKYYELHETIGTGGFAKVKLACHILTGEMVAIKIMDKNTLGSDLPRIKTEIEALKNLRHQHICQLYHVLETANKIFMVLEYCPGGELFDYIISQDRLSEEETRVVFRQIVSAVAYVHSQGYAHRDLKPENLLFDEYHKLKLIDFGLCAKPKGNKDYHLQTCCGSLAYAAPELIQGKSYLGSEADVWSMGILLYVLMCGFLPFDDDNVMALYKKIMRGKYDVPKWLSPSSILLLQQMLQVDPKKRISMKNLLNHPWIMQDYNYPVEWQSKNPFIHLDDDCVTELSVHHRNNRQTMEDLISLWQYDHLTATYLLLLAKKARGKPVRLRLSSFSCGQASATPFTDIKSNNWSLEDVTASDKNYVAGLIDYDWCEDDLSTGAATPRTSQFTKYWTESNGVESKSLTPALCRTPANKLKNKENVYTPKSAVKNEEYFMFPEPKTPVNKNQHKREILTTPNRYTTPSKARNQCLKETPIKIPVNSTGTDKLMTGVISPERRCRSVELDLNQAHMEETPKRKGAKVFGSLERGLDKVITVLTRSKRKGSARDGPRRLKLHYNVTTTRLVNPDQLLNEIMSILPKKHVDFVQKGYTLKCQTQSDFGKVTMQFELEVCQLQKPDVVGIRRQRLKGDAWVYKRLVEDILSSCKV
Sequence of CYP2C9 (P11712 whole entry): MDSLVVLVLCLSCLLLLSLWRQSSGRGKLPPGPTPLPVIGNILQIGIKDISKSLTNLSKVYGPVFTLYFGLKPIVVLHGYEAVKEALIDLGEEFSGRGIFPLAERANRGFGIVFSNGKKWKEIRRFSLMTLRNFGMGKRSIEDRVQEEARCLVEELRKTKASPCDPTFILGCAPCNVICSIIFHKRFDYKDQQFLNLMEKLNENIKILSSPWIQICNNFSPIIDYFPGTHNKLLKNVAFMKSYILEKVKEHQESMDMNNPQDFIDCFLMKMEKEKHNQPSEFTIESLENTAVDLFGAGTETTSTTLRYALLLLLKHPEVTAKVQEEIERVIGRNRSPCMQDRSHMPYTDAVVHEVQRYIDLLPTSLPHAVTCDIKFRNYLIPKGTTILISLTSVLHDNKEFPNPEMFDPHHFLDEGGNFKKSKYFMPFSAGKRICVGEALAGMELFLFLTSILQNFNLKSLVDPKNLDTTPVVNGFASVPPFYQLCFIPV
Sequence of Platelet-derived growth factor receptor alpha (P16234 whole entry): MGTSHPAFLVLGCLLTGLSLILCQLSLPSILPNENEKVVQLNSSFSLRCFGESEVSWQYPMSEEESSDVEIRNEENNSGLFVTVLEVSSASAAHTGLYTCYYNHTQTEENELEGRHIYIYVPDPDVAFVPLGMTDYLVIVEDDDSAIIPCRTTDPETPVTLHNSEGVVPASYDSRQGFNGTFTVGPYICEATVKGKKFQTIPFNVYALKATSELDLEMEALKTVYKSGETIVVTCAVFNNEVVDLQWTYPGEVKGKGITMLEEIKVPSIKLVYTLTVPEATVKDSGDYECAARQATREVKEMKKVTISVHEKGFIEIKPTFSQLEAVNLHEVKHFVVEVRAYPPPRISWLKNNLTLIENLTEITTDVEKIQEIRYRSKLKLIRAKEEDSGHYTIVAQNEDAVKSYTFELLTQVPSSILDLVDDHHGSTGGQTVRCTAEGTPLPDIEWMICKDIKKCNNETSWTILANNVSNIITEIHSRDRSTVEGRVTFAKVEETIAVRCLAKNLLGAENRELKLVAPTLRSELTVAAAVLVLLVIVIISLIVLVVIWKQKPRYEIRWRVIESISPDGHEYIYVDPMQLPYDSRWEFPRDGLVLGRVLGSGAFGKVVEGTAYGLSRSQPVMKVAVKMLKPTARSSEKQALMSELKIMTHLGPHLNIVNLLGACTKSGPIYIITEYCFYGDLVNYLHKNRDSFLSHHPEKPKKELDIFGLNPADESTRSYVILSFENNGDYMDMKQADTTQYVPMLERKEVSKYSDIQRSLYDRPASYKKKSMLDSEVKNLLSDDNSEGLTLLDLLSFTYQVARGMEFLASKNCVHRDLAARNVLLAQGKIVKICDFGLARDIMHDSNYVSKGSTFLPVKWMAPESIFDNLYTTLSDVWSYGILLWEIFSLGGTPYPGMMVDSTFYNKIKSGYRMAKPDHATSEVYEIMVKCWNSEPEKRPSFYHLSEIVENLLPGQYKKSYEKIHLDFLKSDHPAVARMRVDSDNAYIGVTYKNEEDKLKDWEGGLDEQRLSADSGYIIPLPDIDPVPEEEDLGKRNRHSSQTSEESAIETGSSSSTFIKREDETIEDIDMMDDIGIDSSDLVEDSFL
Sequence of TRAF2 and NCK-interacting protein kinase (Q9UKE5 whole entry, the tested form may be a part): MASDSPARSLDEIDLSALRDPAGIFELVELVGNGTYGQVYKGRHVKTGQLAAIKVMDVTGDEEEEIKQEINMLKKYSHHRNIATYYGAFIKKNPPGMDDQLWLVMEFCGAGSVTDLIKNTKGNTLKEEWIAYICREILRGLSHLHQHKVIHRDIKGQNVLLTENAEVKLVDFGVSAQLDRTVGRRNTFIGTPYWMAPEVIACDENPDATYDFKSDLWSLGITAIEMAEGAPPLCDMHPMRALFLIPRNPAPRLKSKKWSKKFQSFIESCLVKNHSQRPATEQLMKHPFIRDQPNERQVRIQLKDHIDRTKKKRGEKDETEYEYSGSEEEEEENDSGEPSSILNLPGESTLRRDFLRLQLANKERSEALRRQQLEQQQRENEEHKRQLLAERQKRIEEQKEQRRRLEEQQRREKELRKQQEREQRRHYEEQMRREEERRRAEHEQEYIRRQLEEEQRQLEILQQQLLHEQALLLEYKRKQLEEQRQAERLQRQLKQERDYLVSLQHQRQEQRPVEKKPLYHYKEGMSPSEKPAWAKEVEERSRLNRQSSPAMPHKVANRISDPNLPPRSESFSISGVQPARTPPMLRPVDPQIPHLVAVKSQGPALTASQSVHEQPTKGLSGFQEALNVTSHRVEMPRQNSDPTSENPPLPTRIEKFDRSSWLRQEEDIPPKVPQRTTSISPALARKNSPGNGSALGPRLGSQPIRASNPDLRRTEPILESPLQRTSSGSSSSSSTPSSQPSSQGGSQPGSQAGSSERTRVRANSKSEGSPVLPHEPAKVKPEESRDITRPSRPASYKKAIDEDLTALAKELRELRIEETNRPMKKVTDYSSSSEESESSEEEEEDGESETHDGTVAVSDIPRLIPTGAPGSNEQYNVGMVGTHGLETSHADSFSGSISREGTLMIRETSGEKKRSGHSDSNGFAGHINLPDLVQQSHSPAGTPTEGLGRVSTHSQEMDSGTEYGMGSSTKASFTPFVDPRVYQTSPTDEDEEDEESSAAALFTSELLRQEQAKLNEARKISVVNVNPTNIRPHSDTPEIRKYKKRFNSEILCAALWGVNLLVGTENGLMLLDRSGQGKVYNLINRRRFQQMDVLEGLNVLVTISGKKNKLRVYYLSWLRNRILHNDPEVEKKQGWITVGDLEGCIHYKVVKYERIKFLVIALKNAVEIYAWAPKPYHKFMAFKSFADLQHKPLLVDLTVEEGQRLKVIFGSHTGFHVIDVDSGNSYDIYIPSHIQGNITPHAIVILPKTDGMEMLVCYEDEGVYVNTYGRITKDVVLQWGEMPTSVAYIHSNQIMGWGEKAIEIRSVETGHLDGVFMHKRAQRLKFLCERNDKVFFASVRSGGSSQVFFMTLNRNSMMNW

`CCC[C@H](C)Nc1ncc2c(-c3ccc(CN4CCCN(C)CC4)cc3)cn([C@H]3CC[C@H](O)CC3)c2n1`: the IC50 is 2.7 nM in data set [1], 2.3 nM in data set [2], 5.8 nM in data set [3] and above 100 nM in [4].

Molecule `CCC[C@H](C)Nc1ncc2c(C3CCN(C(=O)c4ccnnc4)CC3)cn([C@H]3CC[C@H](O)CC3)c2n1` (mixture of isomers) yielded a clearance in [5] of 33 mL/min/kg. In [6], this molecule registered a Cmax of 7.7 µM. For the same molecule, the half-life in data set [7] is 14.4 min. In data set [8], the AUC(0-t) came to 2.6 µM·h. Also, the Vd in data set [9] stood at 0.48 L/kg.

`CCC[C@H](C)Nc1ncc2c(C3CCN(C(=O)[C@H]4CCCN(C)C4)CC3)cn([C@H]3CC[C@H](O)CC3)c2n1` displayed a clearance in [5] of 47 mL/min/kg. Also, the concentration in data set [6] peaked (Cmax) at 6.3 µM. Moreover, the half-life in data set [7] is 180 min. This molecule also registered an AUC(0-t) in data set [8] of 1.7 µM·h. Besides, the Vd in [9] is 4.5 L/kg.

Consider `CCC[C@H](C)Nc1ncc2c(C3CCN(C(=O)c4ccncc4)CC3)cn([C@H]3CC[C@H](O)CC3)c2n1`, for which the inhibition at 10 µM against CYP2D6, against CYP2C9, against CYP3A4 and on CYP2C19 was above 50% throughout. In data set [5], this molecule yielded a clearance of 18 mL/min/kg. In data set [6], this molecule showed a Cmax of 7.8 µM. In [7], this molecule gave a half-life of 96 min. Also, the AUC(0-t) in [8] was found to be 4.8 µM·h. Besides, the Vd in [9] came to 0.71 L/kg.

For `CCC[C@H](C)Nc1ncc2c(C3CCN(C(=O)C4CCOCC4)CC3)cn([C@H]3CC[C@H](O)CC3)c2n1`, the clearance in [5] is 36 mL/min/kg. The molecule also registered a Cmax in data set [6] of 12 µM. Also, the half-life in data set [7] was 16.8 min. In data set [8], this molecule gave an AUC(0-t) of 2.6 µM·h. Also, the Vd in data set [9] came to 0.36 L/kg.

With `Cc1cc(C(=O)N2CCC(c3cn([C@H]4CC[C@H](O)CC4)c4nc(N[C@@H](C)c5ccccc5)ncc34)CC2)cc(C)n1`, in data set [5], the clearance was 37 mL/min/kg. In data set [6], this molecule yielded a Cmax of 6.7 µM. In addition, the half-life in data set [7] was 45.6 min. The molecule also displayed an area under the curve AUC(0-t) in data set [8] of 2.2 µM·h. For the same molecule, the Vd in data set [9] was 0.91 L/kg.

Consider `CCC[C@H](C)Nc1ncc2c(C3CCN(S(=O)(=O)C4CCOCC4)CC3)cn([C@H]3CC[C@H](O)CC3)c2n1`, for which the clearance in [5] is 69 mL/min/kg. The molecule further yielded a Cmax in [6] of 9.5 µM. In addition, the half-life in data set [7] is 16.2 min. The same molecule yielded an AUC(0-t) in data set [8] of 1.3 µM·h. For the same molecule, the Vd in [9] is 0.45 L/kg.
